In general, inhibition refers to the percentage by which the read-out fell short of the control. As a reminder, the IC50 is the concentration at which inhibition is half-maximal. High values mean lower potency, low ones higher potency.

In this assay the target is T1, human NOX4 (Homo sapiens, UniProt Q9NPH5).
T1 construct: expressed in transfected cells; membrane fraction used
T1 sequence (Q9NPH5 1-578): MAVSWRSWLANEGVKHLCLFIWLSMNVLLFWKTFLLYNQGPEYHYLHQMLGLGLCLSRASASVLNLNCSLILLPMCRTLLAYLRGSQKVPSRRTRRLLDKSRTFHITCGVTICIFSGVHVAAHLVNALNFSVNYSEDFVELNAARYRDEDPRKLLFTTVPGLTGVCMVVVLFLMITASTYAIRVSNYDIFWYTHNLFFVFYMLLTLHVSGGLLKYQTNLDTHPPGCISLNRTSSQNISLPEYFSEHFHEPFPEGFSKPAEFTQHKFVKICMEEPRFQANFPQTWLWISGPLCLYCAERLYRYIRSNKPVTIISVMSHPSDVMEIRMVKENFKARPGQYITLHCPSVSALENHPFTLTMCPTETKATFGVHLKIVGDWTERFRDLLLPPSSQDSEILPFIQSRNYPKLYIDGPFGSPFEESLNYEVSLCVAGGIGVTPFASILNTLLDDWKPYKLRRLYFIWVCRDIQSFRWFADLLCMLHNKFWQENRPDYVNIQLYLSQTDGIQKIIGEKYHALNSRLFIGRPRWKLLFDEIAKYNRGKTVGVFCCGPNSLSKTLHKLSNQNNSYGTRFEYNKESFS
T1 sequence (P13498 1-195 partner): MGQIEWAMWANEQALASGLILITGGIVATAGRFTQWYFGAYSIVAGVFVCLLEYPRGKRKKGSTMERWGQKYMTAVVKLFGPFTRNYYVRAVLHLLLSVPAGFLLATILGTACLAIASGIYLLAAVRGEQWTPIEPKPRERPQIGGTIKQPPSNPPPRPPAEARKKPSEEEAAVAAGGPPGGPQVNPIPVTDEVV
The experiment in a line: Cell free membrane based in vitro NOX4 assay: H2O2 production by membranes expressing human NOX4, measured with Amplex Red. The assay is classed as biochemical. The settings on record: for inhibition at 1 µM: 1.0 μM compound, read-out: Percentage inhibition at 1.0 μM; for inhibition at 10 µM: 10.0 μM compound, read-out: Percentage inhibition at 10.0 μM; for IC50: class symbols. Here is the method: The inhibition of NOX4 activity was measured as inhibition of formation of reactive oxygen species (ROS) from oxygen in cell free assays. […] A cell free membrane based in vitro assay was developed by preparing membranes from cells stably overexpressing human NOX4. hNOX4/HEK stable cell line was generated in-house for this purpose. Membranes from stably transfected cells overexpressing human NOX4 were prepared by homogenizing the cells in buffer (20 mM HEPES, 1 mM EGTA, 0.5 mM DTT, 0.5% protease inhibitor cocktail, 1 mM PMSF, pH 7.6), followed by centrifugation at 160000 g for 30 min. Membrane fraction (pellet) was resuspended in storage buffer (homogenization buffer with 10% glycerol and 100 mM NaCl) and stored at −80° C. Protein concentration was determined by Bradford reagent. H202 production by membranes expressing human NOX4 was measured using Amplex Red (Invitrogen) by following a slightly modified version of the manufacturer's instruction manual. Briefly, membranes were incubated in assay buffer (25 mM HEPES, 0.12 M NaCl, 3 mM KCl, 1 mM MgCl2, pH 7.4) with Horse Radish Peroxidase (HRP) and Amplex Red. Reaction was started by addition of […] to the membrane mix. Antagonism of NOX4 inhibitors was measured by incubating the membrane with increasing concentrations of the inhibitors for 20 min on a plate shaker prior to addition of NADPH. H2O2 levels were measured for 10 min in a BMG Fluostar microplate reader with excitation and emission wavelengths of 544 nm and 590 nm respectively. Concentration response curves were plotted as a % of maximal response obtained in the absence of the inhibitor. IC50 value was calculated from concentration response curve by nonlinear regression analysis using GraphPad PRISM software.

As for `COc1ccc(Cl)c(-c2[nH]c3c(c(C)nn3C)c(=O)c2O)c1` [Example 23, 6-(2-Chloro-5-methoxyphenyl)-5-hydroxy-1,3-dimethyl-1,7-dihydro-4H-pyrazolo[3,4-b]pyridin-4-one], the inhibition at 1 µM amounted to 100%, the inhibition at 10 µM is 99.3% and the IC50 lay in the range of 50 to 100 nM.
Consider `Cc1nn(C)c2[nH]c(-c3ccc(Cl)c(C(F)(F)F)c3)c(O)c(=O)c12` [Example 24, 6-[3-Chloro-3-(trifluoromethyl)phenyl]-5-hydroxy-1,3-dimethyl-1,7-dihydro-4H-pyrazolo[3,4-b]pyridin-4-one], for which the inhibition at 1 µM amounted to 88.9% and the IC50 was greater than 150 nM.
As to `Cc1nn(C)c2[nH]c(-c3ccc(Cl)cc3F)c(O)c(=O)c12` [Example 25, 6-(4-Chloro-2-fluorophenyl)-5-hydroxy-1,3-dimethyl-1,7-dihydro-4H-pyrazolo[3,4-b]pyridin-4-one], the inhibition at 1 µM turned out to be 90.7% and the inhibition at 10 µM is 78.3%.
For `CCn1nc(C)c2c(=O)c(O)c(-c3ccccc3Cl)[nH]c21` [Example 26, 6-(2-Chlorophenyl)-1-ethyl-5-hydroxy-3-methyl-1,7-dihydro-4H-pyrazolo[3,4-b]pyridin-4-one], the inhibition at 1 µM came to 89.7%, the inhibition at 10 µM is 64.5% and the IC50 lay in the range of 50 to 100 nM.
On to `Cc1nn(CC(F)(F)F)c2[nH]c(-c3ccccc3Cl)c(O)c(=O)c12` [Example 27, 6-(2-Chlorophenyl)-5-hydroxy-3-methyl-1-(2,2,2-trifluoroethyl)-1,7-dihydro-4H-pyrazolo[3,4-b]pyridin-4-one], for which the inhibition at 1 µM was found to be 98.2%, the inhibition at 10 µM is 100% and the IC50 is 100 to 150 nM.
In the case of `Cc1nn(C(C)C)c2[nH]c(-c3ccccc3Cl)c(O)c(=O)c12` [Example 28, 6-(2-Chlorophenyl)-5-hydroxy-3-methyl-1-(propan-2-yl)-1,7-dihydro-4H-pyrazolo[3,4-b]pyridin-4-one], the inhibition at 1 µM came out at 82.1%, the inhibition at 10 µM amounted to 58.9% and the IC50 lay in the range of 100 to 150 nM.
Regarding `COc1ccc(-n2nc(C)c3c(=O)c(O)c(-c4c(F)cccc4F)[nH]c32)cc1` [Example 29, 6-(2,6-Difluorophenyl)-5-hydroxy-1-(4-methoxyphenyl)-3-methyl-1,7-dihydro-4H-pyrazolo[3,4-b]pyridin-4-one], the inhibition at 1 µM came to 89.4%, the inhibition at 10 µM is 95.6% and the IC50 fell in the range of 100 to 150 nM.
The like results for `Cc1nn(-c2ccccn2)c2[nH]c(-c3ccccc3Cl)c(O)c(=O)c12` [Example 30, 6-(2-Chlorophenyl)-5-hydroxy-3-methyl-1-(pyridin-2-yl)-1,7-dihydro-4H-pyrazolo[3,4-b]pyridin-4-one] were, in that order, 64.1%, 77.3% and greater than 150 nM.
The corresponding values for `Cc1nn(-c2ccc(F)c(F)c2)c2[nH]c(-c3ccccc3Cl)c(O)c(=O)c12` [Example 31, 6-(2-Chlorophenyl)-1-(3,4-difluorophenyl)-5-hydroxy-3-methyl-1,7-dihydro-4H-pyrazolo[3,4-b]pyridin-4-one] are 100%, 100% and less than 50 nM.
As for `Cc1nn(-c2ccc(F)cc2)c2[nH]c(-c3c(F)cccc3F)c(O)c(=O)c12` [Example 32, 6-(2,6-Difluorophenyl)-1-(4-fluorophenyl)-5-hydroxy-3-methyl-1,7-dihydro-4H-pyrazolo[3,4-b]pyridin-4-one], the inhibition at 1 µM came out at 100%, the inhibition at 10 µM was determined as 100% and the IC50 was less than 50 nM.
Take `Cc1nn(-c2ccc(F)cc2)c2[nH]c(-c3ccccc3Cl)c(O)c(=O)c12` [Example 33, 6-(2-Chlorophenyl)-1-(4-fluorophenyl)-5-hydroxy-3-methyl-1,7-dihydro-4H-pyrazolo[3,4-b]pyridin-4-one]: the inhibition at 1 µM turned out to be 100%, the inhibition at 10 µM was found to be 100% and the 50% inhibitory concentration (IC50) is less than 50 nM.
For the molecule `Cc1nn(-c2cccc(F)c2)c2[nH]c(-c3ccccc3Cl)c(O)c(=O)c12` [Example 34, 6-(2-Chlorophenyl)-1-(3-fluorophenyl)-5-hydroxy-3-methyl-1,7-dihydro-4H-pyrazolo[3,4-b]pyridin-4-one], the inhibition at 1 µM turned out to be 100%, the inhibition at 10 µM turned out to be 100% and the IC50 was less than 50 nM.
In the case of `Cc1nn(-c2cccc(F)c2)c2[nH]c(-c3c(F)cccc3F)c(O)c(=O)c12` [Example 35, 6-(2,6-Difluorophenyl)-1-(3-fluorophenyl)-5-hydroxy-3-methyl-1,7-dihydro-4H-pyrazolo[3,4-b]pyridin-4-one], the inhibition at 1 µM was found to be 100%, the inhibition at 10 µM was determined as 100% and the IC50 is less than 50 nM.
For the molecule `Cc1nn(-c2ccccn2)c2[nH]c(-c3c(F)cccc3F)c(O)c(=O)c12` [Example 36, 6-(2,6-Difluorophenyl)-5-hydroxy-3-methyl-1-(pyridin-2-yl)-1,7-dihydro-4H-pyrazolo[3,4-b]pyridin-4-one], the inhibition at 1 µM was determined as 84.2%, the inhibition at 10 µM worked out at 100% and the IC50 was greater than 150 nM.
Regarding `Cc1nn(-c2ccc(F)c(F)c2)c2[nH]c(-c3c(F)cccc3F)c(O)c(=O)c12` [Example 37, 6-(2,6-Difluorophenyl)-1-(3,4-difluorophenyl)-5-hydroxy-3-methyl-1,7-dihydro-4H-pyrazolo[3,4-b]pyridin-4-one], the inhibition at 1 µM was determined as 100%, the inhibition at 10 µM stood at 100% and the IC50 was in the range of 50 to 100 nM.
`COc1ccc(-c2[nH]c3c(c(C)nn3-c3ccc(F)cc3)c(=O)c2O)c(F)c1` [Example 38, 6-(2-Fluoro-4-methoxyphenyl)-1-(4-fluorophenyl)-5-hydroxy-3-methyl-1,7-dihydro-4H-pyrazolo[3,4-b]pyridin-4-one]: the inhibition at 1 µM worked out at 87.5%, the inhibition at 10 µM was found to be 86.1% and the IC50 lay within 100 to 150 nM.
`COc1ccc(-c2[nH]c3c(c(C)nn3-c3ccc(F)c(F)c3)c(=O)c2O)c(F)c1` [Example 39, 1-(3,4-Difluorophenyl)-6-(2-fluoro-4-methoxyphenyl)-5-hydroxy-3-methyl-1,7-dihydro-4H-pyrazolo[3,4-b]pyridin-4-one]: the inhibition at 1 µM turned out to be 85%, the inhibition at 10 µM was determined as 87.3% and the IC50 was in the range of 100 to 150 nM.
The corresponding values for `Cn1nc(C(F)(F)F)c2c(=O)c(O)c(-c3ccccc3Cl)[nH]c21` [Example 40, 6-(2-Chlorophenyl)-5-hydroxy-1-methyl-3-(trifluoromethyl)-1,7-dihydro-4H-pyrazolo[3,4-b]pyridin-4-one] are 93.3%, 100% and less than 50 nM.
The like results for `Cn1nc(C(F)(F)F)c2c(=O)c(O)c(-c3ccccc3F)[nH]c21` [Example 41, 6-(2-Fluorophenyl)-5-hydroxy-1-methyl-3-(trifluoromethyl)-1,7-dihydro-4H-pyrazolo[3,4-b]pyridin-4-one] were, in that order, 77.7%, 87.6% and greater than 150 nM.

The record behind these values is patent US20200247800A1, “SUBSTITUTED BICYCLIC HETEROCYCLIC COMPOUNDS AS NADPH OXIDASE INHIBITORS” (Glenmark Pharmaceuticals S.A., priority 2017, published 2020).
